Laboratory results taken from US6146824A, “Method for determining tumor cell adhesion” (Hadasit Medical Research Services and Development Company …, priority 1995, dated 2000).
No end group written: not given here.

Legend:
rat-aorta ring = assay: Apoptosis in rat aorta ring by TUNEL nuclei staining; format: cell-based
Protocol: Apoptosis, or programmed cell death, can be evaluated by DNA fragmentation using a technique based on terminal deoxynucleotidyl transferase (TdT) reactivity with DNA breaks. This histochemical staining was based on the original "TUNEL" method (Gavrieli, et al., J. Cell Biol. 119:493-501 (1992)). Tissue was fixed in buffered formalin; after deparaffinization and hydration, the slide was quenched with H2 O2, in methanol. In order to strip the nuclear proteins, the tissue was preincubated in Tris-HCl and then incubated with proteinase K (20 μg/ml) for 15 minutes and washed. DNA fragments are elongated and labeled with biotinylated poly dUTP, introduced by terminal deoxynucleotidyl transferase. Finally, bound biotin is stained by avidin conjugated peroxidase, developed with nickle-enhanced diaminobenzidine. For positive control (FIG. 12, E) staining serves a preparation that was exposed to DNase digestion (according to Gavieli, et al., supra). […] It is important to emphasize that the RGD derived peptide-Th-1, is capable of inducing in addition to inhibition of micro-vessel sprout formation, cellular signaling of programmed cell death, indicating a possible explanation for the mechanism by which angiogenesis is prevented by Th-1.

MIM/8 cells = assay: Adhesion of high metastatic human melanoma cells MIM/8 to Th-1; format: cell-based; settings: 100 μg/ml Th-1; compared with low metastatic MeWo
Protocol: (§1) Human melanoma cells established from lymph node metastases, being either MeWo cell lines representing diverse metastatic potentials, or a highly metastatic cell line originating from a melanoma patient (Nip et al., J. Clin. Invest. 90:1406-1413 (1992)) were used. High metastatic cells were selected by adhesion to lymph nodes and were designated as MeWoLN161 (also referred to as "61").
(§2) The cells were incubated with 100 μg/ml Th-1 and their adherence was determined as described above. As control, the level of adherence of the cells to BSA coated substrate was determined.

MeWoLN161 (61) cells = assay: Adhesion of high metastatic human melanoma cells 61 to Th-1; format: cell-based; settings: 100 μg/ml Th-1; compared with low metastatic MeWo
Protocol: as §1, §2

[1] = system: B16-BL6 murine melanoma cells; assay: Inhibition of lung colonization of co-injected B16-BL6 melanoma cells in C57BL/6 mice; format: in vivo
Protocol: 1×10^5 cells/0.2 ml/mouse B16-BL6 cells were injected into the lateral tail vein of unanesthetized C57BL/6 mice. The mice were monitored on a daily basis and sacrificed 2 weeks later by cervical dislocation. The animals were necropsied, and the lungs were removed, washed in water, and fixed in Bouin's solution (containing saturated solution of picric acid, 2% glacial acetic acid and 3% formaldehyde). The number of lung nodules was determined under a dissecting microscope.
B16-BL6 cell monolayers in culture were detached for 2 mins. with 0.02% EDTA and resuspended gently to 1×10^5 cells/0.2 ml DMEM. 0.5 mg/1×10^5 cells/0.2 ml of Th-1 was preincubated, at 37° C. for 30 mins, with a half of the cells' cultures prior to injecting mice. A single cell suspension (1×10^5 cells/0.2 ml/mouse), comprising either Th-1 treated or Th-1 untreated melanoma cells was injected slowly into the lateral tail vein of C57BL/6 mice.
Fourteen days after injection, the mice were sacrificed, and their lungs were excised and fixed with 10% formaldehyde and stained with saturated picric acid. The number of surface melanoma colonies was counted visually or with the aid of a dissecting microscope.

B16-F1 cells = assay: Adhesion of low metastatic B16-F1 melanoma cells to coated substrate (methylene blue uptake); format: cell-based, murine; settings: plates coated with 10, 50 or 250 μg/well peptide or 10 μg/ml plasmin-digested thrombin; 37° C., 2 hours
Protocol: (§3) Confluent endothelial cells were dissociated with trypsin-EDTA solution, washed once in growth medium and resuspended in DMEM containing 0.2% bovine serum albumin (BSA). 1.3×10^5 cells/well/0.2 ml DMEM containing 0.2 BSA were added to each protein-coated well and incubated at 37° C. for 2 h. The plates were then washed three times with phosphate batter saline (PBS) and the firmly attached cells were fixed with 3% paraformaldehyde. Fixed cells were then rinsed with 0.1 M borate buffer (pH 8.5), stained for 10 mins. at 22° C. with 0.1 ml/well methylene blue (1% in 0.1 M borate buffer, pH 8.5) and washed four times in borate buffer. This procedure removed practically all non cell-bound dye. Methylene blue which was incorporated by cells was dissolved with 0.1 N HCl (0.2 ml/well) for 40 mins. at 37° C., and determined by its absorbance at 600 nm. Tissue culture plates were coated with either 10, 50 or 250 μg/well of Th-1; with 10 μg/ml of thrombin digested by incubation at 22° C. for 1 hour with plasmin (2 μg/ml); or with 0.2% BSA which served as control (CON). 0.5×10^6 cells/wells of B16-BL6 or B16-F1 cells, which are known to present in vivo high and low pulmonary colonization, respectively, were incubated at 37° C. for 2 hours with the plates coated with the substrates described above. […] The level of cell attachment was evaluated by the methylene blue uptake assay described in I(E) above. […]

B16-BL6 cells [2] = assay: Adhesion of high metastatic B16-BL6 melanoma cells to coated substrate (methylene blue uptake); format: cell-based, murine; settings: plates coated with 10, 50 or 250 μg/well peptide or 10 μg/ml plasmin-digested thrombin; 37° C., 2 hours
Protocol: as §3

B16-BL6 cells [3] = assay: Inhibition of B16-BL6 cell adhesion to modified RGD-exposed thrombin (plasmin-digested); format: cell-based, murine
Protocol: Fixed cells were then rinsed with 0.1 M borate buffer (pH 8.5), stained for 10 mins. at 22° C. with 0.1 ml/well methylene blue (1% in 0.1 M borate buffer, pH 8.5) and washed four times in borate buffer. This procedure removed practically all non cell-bound dye. Methylene blue which was incorporated by cells was dissolved with 0.1 N HCl (0.2 ml/well) for 40 mins. at 37° C., and determined by its absorbance at 600 nm. 10 μg/ml of thrombin was digested with 2 μg/ml plasmin by incubation in 22° C. for 1 hour. Tissue culture plates were coated with digested […] by incubation at 4° C. for 2 hours. 1×10^6 B16-BL6 cells were incubated, at 22° C. for 30 mins. with increasing concentrations of Th-1 peptide (20-300 μg) prior to attachment to treated tissue culture plates by incubation at 37° C. for 2 hours. The attached cells were washed 3 times with PBS and fix with 3% formaldehyde. The level of attachment was evaluated by the methylene blue uptake assay described in I(E) above.

melanoma cells = settings: Humphries et al. (1988); cited from earlier work

Protocol for rat aorta rings: Type 1 collagen is prepared from the tail tendons of adult Sprague-Dawley rats. Briefly, the collagen fibers are solubilized by a slow stirring for. 48 hours at 4° C. in a sterile, 1/1000 (v/v) acetic acid solution (300 ml for 1 gr. of collagen). The resulting solution is filtered through a sterile triple gause and centrifuged at 16,000 gr for 1 hour at 4° C. The collagen matrix gel is obtained by simultaneously raising the pH and ionic strength of the collagen solution. For this purpose, seven vols. of collagen solution was quickly mixed with 1 vol. of 10×Minimum Essential Medium and 2 vols. of sodium bicarbonate (0.15 M).
Thoratic aortas are obtained from 1-2 month old SD rats sacrificed by decapitation. The aortas are immediately transferred to a Petri dish with PBS. The fibroadipose tissue around the aorta is carefully removed under a dissecting microscope and 1 mm long aortic rings are sectioned and extensively rinsed with PBS.
The collagen solution (0.2 ml) is added to each of 16 mm well and gellation was allowed for 15 mins. at 37° C. The aorta ring is transferred and positioned to the center of the gel and another 0.4 ml of the collagen solution is carefully poured on top of the ring. After the gel is formed, 0.4 ml of Serum-free Endothelial Growth Medium is added and changed every other day.
In this system, the rings of aorta are cultured in a three-dimensional gel of collagen sprouts to microvessel.

Substance | concentration giving 50% inhibition of explant formation (rat aorta rings) | concentration giving complete inhibition (rat aorta rings) | inhibition of angiogenesis in aorta rings (rat aorta rings; 100 μg/ml, vs peptide of similar size without RGD-site) | microvessel formation after longer incubation then washout (rat aorta rings; 150 μg/ml for 6 days, then fresh medium) | microvessel formation with peptide constantly present (rat aorta rings; 150 μg/ml, up to 14 days) | inhibition in sprout formation of the microvessel (rat aorta rings; 10-250 μg/ml) | concentration giving maximal induction of apoptosis (rat-aorta ring) | apoptosis (nuclei staining, TUNEL) (rat-aorta ring; 10-250 μg/ml) | adherence of MIM/8 cells to Th-1 compared to BSA control (MIM/8 cells) | adherence of 61 cells to Th-1 compared to BSA control (MeWoLN161 (61) cells) | inhibition of lung colonization ([1]; 0.5 mg peptide/mouse, co-injected i.v. with B16-BL6 cells, 14 days) | effect on melanotic colonies in the lungs ([1]; co-injection with B16-BL6 cells, 14 days after injection, vs B16-BL6 alone) | potency in inhibiting metastasis of melanoma cells relative to GRGDS peptide ([1]; vs GRGDS of prior art) | adhesion of B16-F1 cells to the substrate (B16-F1 cells) | adhesion of B16-BL6 cells to the substrate (B16-BL6 cells [2]) | concentration at which inhibition of adhesion to modified RGD-exposed thrombin was already obtained (B16-BL6 cells [3]; B16-BL6 cells) | inhibition of adhesion of B16-BL6 cells to modified RGD-exposed thrombin (B16-BL6 cells [3]; cells preincubated with 20-300 μg peptide, 22° C., 30 mins) | concentration at which inhibition of metastasis was evident (melanoma cells)
AGYKPDEGKRGDAC [Th-1, I.D. No. 2, residues 178-191 of native thrombin] | ~50 µg/mL | 100 to 250 µg/mL | able to inhibit angiogenesis | further increased inhibition | complete inhibition | dose dependent inhibition | 250 µg/mL | dose dependent manner | significantly higher level of adherence | significantly higher level of adherence | Over 90% | marked reduction of melanotic colonies | about 20 fold | low relatively dose independent adhesion level | high, dose dependent adhesion | 16 µM | inhibited, in a dose depended manner | –
GRGDS | – | – | – | – | – | – | – | – | – | – | – | – | – | – | – | – | – | 3 mg/mouse
